Laboratory results taken from ChEMBL document CHEMBL4602687, “Dual Binding to Orthosteric and Allosteric Sites Enhances the Anticancer Activity of a TRAP1-Targeting Drug” (J Med Chem, 2020).
Changes are numbered by the printed parent chain. Activity calls are given as the source filed them.

Assays:
[1] = target: T1, Heat shock protein 75 kDa, mitochondrial (Homo sapiens) (UniProt Q12931); assay: Inhibition of recombinant wild-type human TRAP1 expressed in Escherichia coli BL21 (DE3) assessed as intrinsic fluorescence quenching of tryptophan residues at 10 uM measured after 1 hr by fluorescence spectrophotometric method
T1 sequence (whole entry): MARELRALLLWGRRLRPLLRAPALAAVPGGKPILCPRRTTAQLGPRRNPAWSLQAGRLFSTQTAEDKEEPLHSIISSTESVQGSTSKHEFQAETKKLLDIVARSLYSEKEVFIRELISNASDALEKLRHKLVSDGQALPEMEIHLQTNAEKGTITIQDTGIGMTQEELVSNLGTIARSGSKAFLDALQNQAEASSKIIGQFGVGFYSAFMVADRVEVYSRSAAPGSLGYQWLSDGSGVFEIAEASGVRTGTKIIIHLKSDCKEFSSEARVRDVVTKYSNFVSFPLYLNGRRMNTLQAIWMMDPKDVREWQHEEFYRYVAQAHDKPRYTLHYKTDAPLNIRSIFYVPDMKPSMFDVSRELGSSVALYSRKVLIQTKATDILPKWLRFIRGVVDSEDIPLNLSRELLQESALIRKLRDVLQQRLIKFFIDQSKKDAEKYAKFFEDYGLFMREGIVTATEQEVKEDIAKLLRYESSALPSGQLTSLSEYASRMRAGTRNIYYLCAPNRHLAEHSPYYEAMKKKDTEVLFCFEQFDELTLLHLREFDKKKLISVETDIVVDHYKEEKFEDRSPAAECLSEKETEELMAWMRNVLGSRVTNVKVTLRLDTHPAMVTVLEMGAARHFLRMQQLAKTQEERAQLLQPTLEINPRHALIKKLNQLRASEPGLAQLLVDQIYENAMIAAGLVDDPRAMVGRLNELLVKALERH

[2] = species on record: Homo sapiens; assay: Inhibition of recombinant full-length human TRAP1 W383/W4F mutant expressed in Escherichia coli BL21 (DE3) assessed as intrinsic fluorescence quenching of tryptophan residues at 10 uM measured after 1 hr by fluorescence spectrophotometric method
[3] = tested on: T2, Heat shock protein 75 kDa, mitochondrial (Homo sapiens), Q12931 [E403K]; assay: Inhibition of recombinant wild-type human TRAP1 E403K mutant ATPase activity expressed in Escherichia coli BL21 (DE3) up to 20 uM preincubated for 0.5 hrs followed by ATP addition and measured after 3 hrs by PiColorLock Gold reagent based colorimetric assay
T2 sequence (whole entry): T1 sequence (whole entry) with E403K

[4] = tested on: T3, Heat shock protein 75 kDa, mitochondrial (Homo sapiens), Q12931 [R114E,E403K]; assay: Stimulation of recombinant […] human TRAP1 R114E/E403K mutant ATPase activity expressed in Escherichia coli BL21 (DE3) up to 20 uM preincubated for 0.5 hrs followed by ATP addition and measured after 3 hrs by PiColorLock Gold reagent based colorimetric assay
T3 sequence (whole entry): T1 sequence (whole entry) with R114E, E403K

[5] = tested on: NCI-H460; assay: Antitumor activity against human NCI-H460 cells xenografted in nude mouse assessed as induction of tumor cell death by measuring increase in cleaved caspase-3 expression at 5 mg/kg, ip administered daily by Western blot analysis; format: functional, organism-based

Nc1ncnc2c1nc(Sc1cc3c(cc1I)OCO3)n2CCCCCCCCCC[P+](c1ccccc1)(c1ccccc1)c1ccccc1
active: inhibition [1] | inhibition [2] | inhibition [3] | Activity [4] | Activity [5]
